Patent publication US12662491B2 (Redona Therapeutics, Inc., priority 2020, dated 2026)
Read-outs that look alike come from different tables or passages of the source.

Biological target: T1, Zcchc11 enzyme (Homo sapiens, UniProt Q5TAX3)
T1 construct: made in house; host or cells: HEK293 cells (Zcchc11); E. coli Rosetta II (LIN28A)
T1 sequence (Q5TAX3 212-1420): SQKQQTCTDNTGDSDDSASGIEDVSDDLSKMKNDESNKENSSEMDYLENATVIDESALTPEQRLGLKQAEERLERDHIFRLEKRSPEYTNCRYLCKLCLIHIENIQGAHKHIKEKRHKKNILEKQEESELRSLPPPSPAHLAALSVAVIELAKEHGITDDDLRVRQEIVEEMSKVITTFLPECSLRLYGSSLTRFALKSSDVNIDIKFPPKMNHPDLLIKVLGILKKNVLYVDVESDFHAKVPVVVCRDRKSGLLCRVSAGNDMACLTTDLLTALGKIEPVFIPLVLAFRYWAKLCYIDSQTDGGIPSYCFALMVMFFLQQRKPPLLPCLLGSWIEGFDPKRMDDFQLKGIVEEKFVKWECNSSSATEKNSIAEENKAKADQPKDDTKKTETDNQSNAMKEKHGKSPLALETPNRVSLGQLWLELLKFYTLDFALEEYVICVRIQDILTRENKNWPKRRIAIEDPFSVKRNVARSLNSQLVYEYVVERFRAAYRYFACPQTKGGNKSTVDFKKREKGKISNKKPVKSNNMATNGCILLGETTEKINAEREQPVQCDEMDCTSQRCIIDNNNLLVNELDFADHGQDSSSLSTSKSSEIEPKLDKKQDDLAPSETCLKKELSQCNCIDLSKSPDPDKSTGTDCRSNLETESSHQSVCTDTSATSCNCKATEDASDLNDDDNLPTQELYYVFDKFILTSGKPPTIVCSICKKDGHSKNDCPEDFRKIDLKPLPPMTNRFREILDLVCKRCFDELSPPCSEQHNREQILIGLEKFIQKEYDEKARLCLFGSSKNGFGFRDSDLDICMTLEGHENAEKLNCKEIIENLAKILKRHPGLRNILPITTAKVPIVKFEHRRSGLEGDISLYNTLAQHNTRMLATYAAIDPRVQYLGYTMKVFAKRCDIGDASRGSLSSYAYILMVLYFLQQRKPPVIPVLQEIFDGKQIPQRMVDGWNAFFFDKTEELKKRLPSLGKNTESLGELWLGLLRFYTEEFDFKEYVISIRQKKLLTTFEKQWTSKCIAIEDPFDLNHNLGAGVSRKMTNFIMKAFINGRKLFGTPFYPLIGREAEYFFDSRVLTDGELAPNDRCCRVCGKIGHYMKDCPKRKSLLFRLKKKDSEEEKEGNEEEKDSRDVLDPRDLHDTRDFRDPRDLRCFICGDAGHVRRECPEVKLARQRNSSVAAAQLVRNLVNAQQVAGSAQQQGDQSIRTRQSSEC
Assay: TUTase assay (Zcchc11 assay, Lin28a-dependent polyuridylation of pre-let-7)
Assay type: biochemical
Details: read-out: Potency Lin28a-dep Z11 IC50
Outline: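 Polyuridylation measured as fluorescein loss when a rhodamine-labelled A20 probe anneals to U-tails added to fluorescein pre-let-7 (2 nM). Reaction: truncated Zcchc11 0.2 nM, E. coli-made LIN28A 10 nM, UTP 5 uM, HEPES pH 7.3, room temperature. Initial rates fitted to four-parameter IC50.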

[1] = LIN28A 10 nM, Zcchc11 0.2 nM, 5′-fluorescein pre-let-7 miRNA 2 nM, UTP 5 uM, room temperature, 30 minutes pre-incubation
[2] = Lin28a-dependent Zcchc11 (Z11) TUTase assay
[3] = Lin28a-dependent Zcchc11 (Z11) TUTase activity

| Structure (SMILES) | IC50 [2] [nM] | IC50 [3] [nM] | other results |
| --- | --- | --- | --- |
| Cc1cccnc1OC[C@H]1CCCN1c1cc2c(cc1F)c(=O)c(C(=O)O)cn2-c1ccccc1 [Example 5, (R)-6-fluoro-7-(2-(((3-methylpyridin-2-yl)oxy)methyl)pyrrolidin-1-yl)-4-oxo-1-phenyl-1,4-dihydroquinoline-3-carboxylic acid] | – | – | IC50 [1]: ≤ 1000 nM |
| CNCCN1CCC(n2cc(C(=O)O)c(=O)c3cc(Cl)c(N4CCC[C@@H]4COc4ncccc4Cl)cc32)CC1 [Example 502, (R)-6-chloro-7-(2-(((3-chloropyridin-2-yl)oxy)methyl)pyrrolidin-1-yl)-1-(1-(2-(methyl-amino)ethyl)piperidin-4-yl)-4-oxo-1,4-dihydroquinoline-3-carboxylic acid] | 1000 to 10000 | – | – |
| CN(C)C1CN(c2ccc(-n3cc(C(=O)O)c(=O)c4cc(Cl)c(N5CCC[C@@]5(C)COc5ncccc5Cl)nc43)cn2)C1 (racemic) [Compound 186, rac-(R)-6-chloro-7-(2-(((3-chloropyridin-2-yl)oxy)methyl)-2-methyl-pyrrolidin-1-yl)-1-(6-(3-(dimethyl-amino)azetidin-1-yl)pyridin-3-yl)-4-oxo-1,4-dihydro-1,8-naphthyridine-3-carboxylic acid] | – | ≤ 1000 | – |
| CN(C)C1CN(c2ccc(-n3cc(C(=O)O)c(=O)c4cc(Cl)c(N5CC(c6ccc(O)nc6)C[C@@H]5COc5ncccc5Cl)cc43)cn2)C1 (some centres unmarked) [Example 608] | ≤ 1000 | – | – |
| O=C(O)c1cn(C2CCOCC2)c2cc(N3CCC[C@@H]3COc3ccccn3)c(F)cc2c1=O [Example 450, (R)-6-fluoro-4-oxo-7-(2-((pyridin-2-yloxy)methyl)pyrrolidin-1-yl)-1-(tetrahydro-2H-pyran-4-yl)-1,4-dihydroquinoline-3-carboxylic acid] | 1000 to 10000 | – | – |
| COc1ccnc(OC[C@H]2C[C@H]3C[C@H]3N2c2nc3c(cc2Cl)c(=O)c(C(=O)O)cn3-c2ccc(N3CC(N(C)C)C3)nc2)c1Cl [Example 679, 6-chloro-7-((1R,3R,5R)-3-(((3-chloro-4-methoxypyridin-2-yl)oxy)methyl)-2-azabicyclo[3.1.0]hexan-2-yl)-1-(6-(3-(dimethylamino)azetidin-1-yl)pyridin-3-yl)-4-oxo-1,4-dihydro-1,8-naphthyridine-3-carboxylic acid] | ≤ 1000 | – | – |
| CN(C)C1CN(c2ccc(-n3cc(C(=O)O)c(=O)c4cc(Cl)c(N5CCC[C@@H]5CCc5ccccn5)cc43)cn2)C1 [Example 578, (R)-6-chloro-1-(6-(3-(dimethylamino)azetidin-1-yl)pyridin-3-yl)-4-oxo-7-(2-(2-(pyridin-2-yl)ethyl)pyrrolidin-1-yl)-1,4-dihydroquinoline-3-carboxylic acid] | 1000 to 10000 | – | – |
| Cn1cc(-n2cc(C(=O)O)c(=O)c3cc(Cl)c(N4CCC[C@@H]4COc4ncccc4Cl)nc32)cn1 (racemic) [Compound 191, rac-(R)-6-chloro-7-(2-(((3-chloropyridin-2-yl)oxy)methyl)pyrrolidin-1-yl)-1-(1-methyl-1H-pyrazol-4-yl)-4-oxo-1,4-dihydro-1,8-naphthyridine-3-carboxylic acid] | – | ≤ 1000 | – |
| CN(C)C1CN(c2ccc(-n3cc(C(=O)O)c(=O)c4cc(C#N)c(N5C6CCC5(COc5ncccc5F)CC6)cc43)cn2)C1 [Example 42, 6-cyano-1-(6-(3-(dimethylamino)azetidin-1-yl)pyridin-3-yl)-7-(1-(((3-fluoropyridin-2-yl)oxy)methyl)-7-azabicyclo[2.2.1]heptan-7-yl)-4-oxo-1,4-dihydroquinoline-3-carboxylic acid] | – | – | IC50 [1]: ≤ 1000 nM |
| Cc1cc2c(=O)c(C(=O)O)cn(-c3ccc(N4CC(N(C)C)C4)nc3)c2cc1N1C(=O)CC1COc1ccccn1 (centres unmarked) [Compound 298, 1-(6-(3-(dimethyl-amino)azetidin-1-yl)pyridin-3-yl)-6-methyl-4-oxo-7-(2-oxo-4-((pyridin-2-yloxy)methyl)azetidin-1-yl)-1,4-dihydro-quinoline-3-carboxylic acid] | – | 10000 to 50000 | – |
| CN(C)C1CN(c2ccc(-n3cc(C(=O)O)c(=O)c4cc(Cl)c(N5CCC(C)(C)[C@@H]5COc5ncccc5Cl)cc43)cn2)C1 [Compound 351, (R)-6-chloro-7-(2-(((3-chloropyridin-2-yl)oxy)methyl)-3,3-dimethyl-pyrrolidin-1-yl)-1-(6-(3-(dimethyl-amino)azetidin-1-yl)pyridin-3-yl)-4-oxo-1,4-dihydro-quinoline-3-carboxylic acid] | – | ≤ 1000 | – |
| COc1ccc(F)c(OC[C@H]2C[C@H]3C[C@H]3N2c2cc3c(cc2Cl)c(=O)c(C(=O)O)cn3-c2ccc(N(C)C)nc2)n1 [Compound 266, 6-chloro-1-(6-(dimethyl-amino)pyridin-3-yl)-7-((1R,3R,5R)-3-(((3-fluoro-6-methoxy-pyridin-2-yl)oxy)methyl)-2-azabicyclo [3.1.0]hexan-2-yl)-4-oxo-1,4-dihydro-quinoline-3-carboxylic acid] | – | ≤ 1000 | – |
| CN(C)C1CN(c2ccc(-n3cc(C(=O)O)c(=O)c4cc(Cl)c(N5CCC[C@@H]5COc5nc6nc[nH]c6cc5Cl)cc43)cn2)C1 [Compound 204, (R)-6-chloro-7-(2-(((6-chloro-1H-imidazo [4,5-b]pyridin-5-yl)oxy)methyl)pyrrolidin-1-yl)-1-(6-(3-(dimethyl-amino)azetidin-1-yl)pyridin-3-yl)-4-oxo-1,4-dihydro-quinoline-3-carboxylic acid] | – | ≤ 1000 | – |
| CN1CCn2nc(-n3cc(C(=O)O)c(=O)c4cc(Cl)c(N5CCC[C@@H]5COc5ncccc5Cl)cc43)cc2C1 [Example 508, (R)-6-chloro-7-(2-(((3-chloropyridin-2-yl)oxy)methyl)pyrrolidin-1-yl)-1-(5-methyl-4,5,6,7-tetrahydropyrazolo [1,5-a]pyrazin-2-yl)-4-oxo-1,4-dihydroquinoline-3-carboxylic acid] | ≤ 1000 | – | – |

Further lines, with some results ahead:

| IC50 [2] [nM] | IC50 [3] [nM] | Structure (SMILES) | other results |
| --- | --- | --- | --- |
| – | 1000 to 10000 | O=C(O)c1cn(-c2ccc(O)cc2)c2cc(N3CCC[C@@H]3COc3ccccc3Cl)c(F)cc2c1=O [Compound 107, (R)-7-(2-((2-chlorophenoxy)methyl)pyrrolidin-1-yl)-6-fluoro-1-(4-hydroxy-phenyl)-4-oxo-1,4-dihydro-quinoline-3-carboxylic acid] | – |
| 1000 to 10000 | – | Cc1cccnc1OC[C@H]1CCCN1c1cc2c(cc1Cl)c(=O)c(C(=O)O)cn2C1(C)CCC1 [Example 455, (R)-6-chloro-1-(1-methylcyclobutyl)-7-(2-(((3-methylpyridin-2-yl)oxy)methyl)pyrrolidin-1-yl)-4-oxo-1,4-dihydroquinoline-3-carboxylic acid] | – |
| ≤ 1000 | – | Cc1cccnc1OC[C@H]1CCCN1c1cc2c(cc1F)c(=O)c(C(=O)O)cn2-c1ccc(NS(C)(=O)=O)cc1 [Example 412, (R)-6-fluoro-7-(2-(((3-methylpyridin-2-yl)oxy)methyl)pyrrolidin-1-yl)-1-(4-(methyl-sulfonamido)phenyl)-4-oxo-1,4-dihydroquinoline-3-carboxylic acid] | – |
| ≤ 1000 | – | CN(C)c1ccc(-n2cc(C(=O)O)c(=O)c3cc(Cl)c(N4CCC[C@@H]4COc4ncccc4Cl)cc32)cn1 [Example 421, (R)-6-chloro-7-(2-(((3-chloropyridin-2-yl)oxy)methyl)pyrrolidin-1-yl)-1-(6-(dimethyl-amino)pyridin-3-yl)-4-oxo-1,4-dihydroquinoline-3-carboxylic acid] | – |
| – | 1000 to 10000 | Cc1ccc(-n2cc(C(=O)O)c(=O)c3cc(F)c(N4CCC[C@@H]4COc4ccccn4)cc32)c(C)c1 [Compound 156, (R)-1-(2,4-dimethyl-phenyl)-6-fluoro-4-oxo-7-(2-((pyridin-2-yloxy)methyl)pyrrolidin-1-yl)-1,4-dihydro-quinoline-3-carboxylic acid] | – |
| ≤ 1000 | – | O=C(O)c1cn(-c2ccncn2)c2cc(N3CCC[C@@H]3COc3ncccc3Cl)c(Cl)cc2c1=O [Example 541, (R)-6-chloro-7-(2-(((3-chloropyridin-2-yl)oxy)methyl)pyrrolidin-1-yl)-4-oxo-1-(pyrimidin-4-yl)-1,4-dihydroquinoline-3-carboxylic acid] | – |
